These results are taken from patent US20160106439A1, “PNEUMATIC TOURNIQUET” (BIONUMERIK PHARMACEUTICALS, INC., priority 2013, published 2016).

The assay has as its target T1, Recombinant human Trx (Homo sapiens, UniProt P10599).
T1 sequence (P10599 1-105): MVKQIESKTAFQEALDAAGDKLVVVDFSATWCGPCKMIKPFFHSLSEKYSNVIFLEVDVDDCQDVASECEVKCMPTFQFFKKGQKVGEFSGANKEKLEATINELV
The assay can be described thus: LC MS of Trypsin digested Trx after incubation with Tavocept, mesna or glutathione. The assay is classed as binding. Set-up: purchased Sigma (SigmaAldrich); host or cells: E. coli. As to conditions: 10 mM, 4 to 6 hours.

Take `O=S(=O)([O-])CCSSCCS(=O)(=O)[O-].[Na+].[Na+]` [Tavocept, disodium 2,2′-dithio-bis-ethane sulfonate]: the “Mesna-Cysteine Adduct Detected?” value reads like this: (fragment CMPTFQFFK (cys73)) “Yes”; (fragment LVVVDFSATWCGPCK (active site cys32 and cys35)) “No”; (fragment YSNVIFLEVDVDDCQDVASECEVK (cys62 and cys69)) “Yes”.
